Laboratory results taken from ChEMBL document CHEMBL5257065, “Isosteviol derivatives as protein tyrosine Phosphatase-1B inhibitors: Synthesis, biological evaluation and molecular docking” (Bioorg Med Chem, 2023).

Key:
[1] = molecular target: T1, Tyrosine-protein phosphatase non-receptor type 1 (Homo sapiens) (UniProt P18031); test: Inhibition of PTP1B (unknown origin) at 10 micromol/L by DAS-ELISA; conditions: dose 10.0 µmol/L
T1 sequence (whole entry): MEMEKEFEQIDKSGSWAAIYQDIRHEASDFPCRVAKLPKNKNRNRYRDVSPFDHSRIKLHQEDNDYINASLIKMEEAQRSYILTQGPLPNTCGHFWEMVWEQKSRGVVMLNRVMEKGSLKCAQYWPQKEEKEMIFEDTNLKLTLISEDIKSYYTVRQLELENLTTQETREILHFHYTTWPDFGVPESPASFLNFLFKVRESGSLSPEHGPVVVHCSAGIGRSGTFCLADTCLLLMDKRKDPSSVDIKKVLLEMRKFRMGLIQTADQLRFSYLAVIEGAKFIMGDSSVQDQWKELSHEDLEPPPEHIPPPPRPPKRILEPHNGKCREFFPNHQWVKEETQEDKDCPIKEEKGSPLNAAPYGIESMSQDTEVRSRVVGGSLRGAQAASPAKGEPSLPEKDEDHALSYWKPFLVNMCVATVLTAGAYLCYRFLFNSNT

[2] = molecular target: T2, Tyrosine-protein phosphatase non-receptor type 1 (Homo sapiens, UniProt P18031); test: Inhibition of PTP1B (unknown origin) by DAS-ELISA
T2 sequence (P18031 whole entry): T1 sequence (whole entry)

[3] = molecular target: T3, Tyrosine-protein phosphatase non-receptor type 2 (Homo sapiens, UniProt P17706); test: Inhibition of TCPTP (unknown origin) by DAS-ELISA
T3 sequence (P17706 whole entry): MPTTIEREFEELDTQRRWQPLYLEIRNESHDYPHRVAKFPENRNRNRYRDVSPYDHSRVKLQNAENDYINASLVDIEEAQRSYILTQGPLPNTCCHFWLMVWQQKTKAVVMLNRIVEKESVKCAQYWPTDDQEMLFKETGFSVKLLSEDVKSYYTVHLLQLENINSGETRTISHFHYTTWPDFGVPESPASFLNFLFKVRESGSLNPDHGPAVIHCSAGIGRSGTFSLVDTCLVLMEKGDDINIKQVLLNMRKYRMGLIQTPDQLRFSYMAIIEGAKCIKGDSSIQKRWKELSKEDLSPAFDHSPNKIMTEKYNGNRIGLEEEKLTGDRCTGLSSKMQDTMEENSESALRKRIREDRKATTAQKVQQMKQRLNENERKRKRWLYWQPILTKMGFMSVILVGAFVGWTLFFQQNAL

[4] = molecular target: T4, M-phase inducer phosphatase 2 (Homo sapiens, UniProt P30305); test: Inhibition of CDC25B (unknown origin) by DAS-ELISA
T4 sequence (P30305 whole entry): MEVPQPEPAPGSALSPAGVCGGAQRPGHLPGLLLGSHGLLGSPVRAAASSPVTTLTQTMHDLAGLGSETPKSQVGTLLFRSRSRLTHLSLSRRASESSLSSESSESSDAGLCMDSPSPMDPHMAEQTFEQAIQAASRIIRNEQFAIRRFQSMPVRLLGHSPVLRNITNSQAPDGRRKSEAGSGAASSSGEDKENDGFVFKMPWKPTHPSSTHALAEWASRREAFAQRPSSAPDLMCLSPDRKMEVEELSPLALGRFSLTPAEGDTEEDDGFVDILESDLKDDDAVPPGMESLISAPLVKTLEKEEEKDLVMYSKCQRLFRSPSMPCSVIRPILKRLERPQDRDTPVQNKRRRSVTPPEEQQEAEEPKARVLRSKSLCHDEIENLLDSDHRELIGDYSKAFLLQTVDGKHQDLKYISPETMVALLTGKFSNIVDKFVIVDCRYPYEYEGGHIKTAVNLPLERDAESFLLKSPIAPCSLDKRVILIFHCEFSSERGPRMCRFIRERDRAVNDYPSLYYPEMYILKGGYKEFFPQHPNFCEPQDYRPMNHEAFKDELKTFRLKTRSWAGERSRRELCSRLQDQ

Homo sapiens [5] = species on record: Homo sapiens; test: Selectivity ratio of IC50 for TCPTP (unknown origin) to IC50 for PTP1B (unknown origin) by DAS-ELISA
Homo sapiens [6] = species on record: Homo sapiens; test: Selectivity ratio of IC50 for CDC25B (unknown origin) to IC50 for PTP1B (unknown origin) by DAS-ELISA

| SMILES | inhibition [1] [%] | further results |
| --- | --- | --- |
| C[C@@]12CC[C@@H]3[C@@](CC[C@H]4[C@@]3(C)CCC[C@@]4(C)C(=O)O)(C[C@H]1O)C2 | 36.2 |  |
| CCOC(=O)[C@]1(C)CCC[C@@]2(C)[C@@H]3CC[C@@]4(C)C[C@]3(CC[C@@H]21)C/C4=N\OC | 71.5 |  |
| CCOC(=O)[C@]1(C)CCC[C@@]2(C)[C@@H]3CC[C@@]4(C)C[C@]3(CC[C@@H]21)CC4=O | 73.9 |  |
| C[C@@]12CC[C@@H]3[C@@](CC[C@H]4[C@@]3(C)CCC[C@@]4(C)C(=O)OCCCCBr)(CC1=O)C2 | 70.9 |  |
| C[C@@]12CC[C@@H]3[C@@](CC[C@H]4[C@@]3(C)CCC[C@@]4(C)C(=O)O)(CC1=O)C2 [ISOSTEVIOL] | 63.6 | IC50 [2]: 2.27 µM; IC50 [3]: 1.58 µM; IC50 [4]: 2.09 µM |
| C[C@@]12CC[C@@H]3[C@@](CC[C@H]4[C@@]3(C)CCC[C@@]4(C)C(=O)OCCCCN3CCCCC3)(CC1=O)C2 | 77.7 |  |
| C[C@@]12CC[C@@H]3[C@@](CC[C@H]4[C@@]3(C)CCC[C@@]4(C)C(=O)OCCBr)(CC1=O)C2 | 73.6 |  |
| C[C@@]12CC[C@@H]3[C@@](CC[C@H]4[C@@]3(C)CCC[C@@]4(C)C(=O)O)(C/C1=N\O)C2 | 61.9 |  |
| C[C@@]12CC[C@@H]3[C@@](CC[C@H]4[C@@]3(C)CCC[C@@]4(C)C(=O)OCCN3CCNCC3)(CC1=O)C2 | 78.5 | IC50 [2]: 0.8 µM |
| C[C@@]12CC[C@@H]3[C@@](CC[C@H]4[C@@]3(C)CCC[C@@]4(C)C(=O)OCCCCCBr)(CC1=O)C2 | 71.9 |  |
| COC(=O)[C@]1(C)CCC[C@@]2(C)[C@@H]3CC[C@@]4(C)C[C@]3(CC[C@@H]21)C/C4=N\O | 22 |  |
| COC(=O)[C@]1(C)CCC[C@@]2(C)[C@@H]3CC[C@@]4(C)C[C@]3(CC[C@@H]21)CC4=O | 70.1 |  |
| CCOC(=O)[C@]1(C)CCC[C@@]2(C)[C@@H]3CC[C@@]4(C)C[C@]3(CC[C@@H]21)C[C@H]4OC(=O)c1ccccc1 | 75.5 |  |
| CCOC(=O)[C@]1(C)CCC[C@@]2(C)[C@@H]3CC[C@@]4(C)C[C@]3(CC[C@@H]21)[C@H](Br)C4=O | 81.7 | IC50 [2]: 0.24 µM; IC50 [3]: 1.7 µM; IC50 [4]: 3.31 µM; Ratio IC50 (Homo sapiens [5]): 7; Ratio IC50 (Homo sapiens [6]): 14 |
| CCCOC(=O)[C@]1(C)CCC[C@@]2(C)[C@@H]3CC[C@@]4(C)C[C@]3(CC[C@@H]21)CC4=O | 61.9 |  |
| Cc1ccc(COC(=O)[C@]2(C)CCC[C@@]3(C)[C@@H]4CC[C@@]5(C)C[C@]4(CC[C@@H]32)CC5=O)cc1 | 71.8 |  |
| CCOC(=O)[C@]1(C)CCC[C@@]2(C)[C@@H]3CC[C@@]4(C)C[C@]3(CC[C@@H]21)C[C@H]4OC(=O)c1ccc(O)cc1 | 79 | IC50 [2]: 0.36 µM; IC50 [3]: 2.63 µM; IC50 [4]: 2.34 µM; Ratio IC50 (Homo sapiens [5]): 3.5; Ratio IC50 (Homo sapiens [6]): 6 |
| C[C@@]12CC[C@@H]3[C@@](CC[C@H]4[C@@]3(C)CCC[C@@]4(C)C(=O)OCc3cccc(C#N)c3)(CC1=O)C2 | 76 |  |
| C[C@@]12CC[C@@H]3[C@@](CC[C@H]4[C@@]3(C)CCC[C@@]4(C)C(=O)OCc3ccc(Br)cc3)(CC1=O)C2 | 79.6 | IC50 [2]: 0.33 µM; IC50 [3]: 3.24 µM; IC50 [4]: 3.55 µM; Ratio IC50 (Homo sapiens [5]): 3.5; Ratio IC50 (Homo sapiens [6]): 6 |
| C[C@@]12CC[C@@H]3[C@@](CC[C@H]4[C@@]3(C)CCC[C@@]4(C)C(=O)OCc3ccccc3Br)(CC1=O)C2 | 50.3 |  |
| C[C@@]12CC[C@@H]3[C@@](CC[C@H]4[C@@]3(C)CCC[C@@]4(C)C(=O)OCc3ccccc3I)(CC1=O)C2 | 82.6 | IC50 [2]: 0.4 µM; IC50 [3]: 1.41 µM; IC50 [4]: 3.24 µM; Ratio IC50 (Homo sapiens [5]): 3.5; Ratio IC50 (Homo sapiens [6]): 6 |
| C[C@@]12CC[C@@H]3[C@@](CC[C@H]4[C@@]3(C)CCC[C@@]4(C)C(=O)OCc3ccccc3)(CC1=O)C2 | 52.4 |  |
| CCOC(=O)[C@]1(C)CCC[C@@]2(C)[C@@H]3CC[C@@]4(C)C[C@]3(CC[C@@H]21)C/C4=N\O | 50.8 |  |
| Cc1ccc(S(=O)(=O)N/N=C2/C[C@]34CC[C@H]5[C@@](C)(CCC[C@@]5(C)C(=O)O)[C@@H]3CC[C@@]2(C)C4)cc1 | 75.3 |  |
| C[C@@]12CC[C@@H]3[C@@](CC[C@H]4[C@@]3(C)CCC[C@@]4(C)C(=O)OCCN3CCCCC3)(CC1=O)C2 | 74.2 |  |
| CC(=O)O[C@@H]1C[C@]23CC[C@H]4[C@@](C)(CCC[C@@]4(C)C(=O)O)[C@@H]2CC[C@@]1(C)C3 | 74 |  |
| CCOC(=O)[C@]1(C)CCC[C@@]2(C)[C@@H]3CC[C@@]4(C)C[C@]3(CC[C@@H]21)C[C@H]4O | 67.2 |  |
| CCCOC(=O)[C@]1(C)CCC[C@@]2(C)[C@@H]3CC[C@@]4(C)C[C@]3(CC[C@@H]21)C/C4=N\O | 76.3 |  |
| C[C@@]12CC[C@@H]3[C@@](CC[C@H]4[C@@]3(C)CCC[C@@]4(C)C(=O)OCc3ccccc3Cl)(CC1=O)C2 | 43.8 |  |
